Residue numbers refer to the chain shown, from its start. Where two headings read alike, the source gives them in different places.
How the values were obtained:
[1] = test system: dog Oatp1b4
[2] = biological target: T1, rat Oatp1b2 (Rattus norvegicus, UniProt Q9QZX8)
T1 sequence (Q9QZX8 1-687): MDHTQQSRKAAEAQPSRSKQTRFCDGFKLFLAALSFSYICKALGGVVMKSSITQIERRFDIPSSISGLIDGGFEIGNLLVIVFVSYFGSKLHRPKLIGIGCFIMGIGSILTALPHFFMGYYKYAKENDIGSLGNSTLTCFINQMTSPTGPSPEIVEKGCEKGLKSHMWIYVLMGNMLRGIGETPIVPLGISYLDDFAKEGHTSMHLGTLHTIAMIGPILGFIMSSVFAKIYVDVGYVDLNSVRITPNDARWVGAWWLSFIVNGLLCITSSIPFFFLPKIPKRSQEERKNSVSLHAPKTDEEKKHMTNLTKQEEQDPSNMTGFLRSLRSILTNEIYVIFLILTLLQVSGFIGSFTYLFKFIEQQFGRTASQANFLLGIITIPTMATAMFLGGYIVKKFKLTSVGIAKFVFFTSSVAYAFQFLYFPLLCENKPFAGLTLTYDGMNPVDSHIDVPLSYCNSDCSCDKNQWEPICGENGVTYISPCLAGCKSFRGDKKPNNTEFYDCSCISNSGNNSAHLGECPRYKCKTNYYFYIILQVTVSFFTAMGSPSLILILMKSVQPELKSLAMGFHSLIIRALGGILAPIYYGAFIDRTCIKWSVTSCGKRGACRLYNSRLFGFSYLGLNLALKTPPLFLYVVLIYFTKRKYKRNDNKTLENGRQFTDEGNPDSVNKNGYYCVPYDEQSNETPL

[3] = biological target: T2, OCT1 (Homo sapiens, UniProt O15245); conditions: read-out: IC50, Literature Report; substrate Metformin; HEK293 Cells; Sumito I, et al., JPET, 2011; cited from earlier work
T2 sequence (O15245 whole entry): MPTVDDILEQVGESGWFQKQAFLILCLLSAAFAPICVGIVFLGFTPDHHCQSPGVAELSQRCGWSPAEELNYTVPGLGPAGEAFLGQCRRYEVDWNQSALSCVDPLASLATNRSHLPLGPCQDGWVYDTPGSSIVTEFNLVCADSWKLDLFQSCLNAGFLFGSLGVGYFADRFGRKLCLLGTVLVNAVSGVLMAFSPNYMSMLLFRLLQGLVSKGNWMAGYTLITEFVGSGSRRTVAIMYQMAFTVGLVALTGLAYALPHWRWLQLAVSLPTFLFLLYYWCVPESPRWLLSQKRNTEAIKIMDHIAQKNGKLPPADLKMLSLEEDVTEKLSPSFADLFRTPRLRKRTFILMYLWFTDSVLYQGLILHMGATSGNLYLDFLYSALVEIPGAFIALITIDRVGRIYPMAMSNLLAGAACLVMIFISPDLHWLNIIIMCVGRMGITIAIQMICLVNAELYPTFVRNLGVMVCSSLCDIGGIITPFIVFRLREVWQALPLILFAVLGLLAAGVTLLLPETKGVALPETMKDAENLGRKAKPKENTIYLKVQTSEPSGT

[4] = biological target: T2, OCT1
[5] = biological target: T3, OCT2 (Homo sapiens, UniProt O15244)
T3 sequence (O15244 whole entry): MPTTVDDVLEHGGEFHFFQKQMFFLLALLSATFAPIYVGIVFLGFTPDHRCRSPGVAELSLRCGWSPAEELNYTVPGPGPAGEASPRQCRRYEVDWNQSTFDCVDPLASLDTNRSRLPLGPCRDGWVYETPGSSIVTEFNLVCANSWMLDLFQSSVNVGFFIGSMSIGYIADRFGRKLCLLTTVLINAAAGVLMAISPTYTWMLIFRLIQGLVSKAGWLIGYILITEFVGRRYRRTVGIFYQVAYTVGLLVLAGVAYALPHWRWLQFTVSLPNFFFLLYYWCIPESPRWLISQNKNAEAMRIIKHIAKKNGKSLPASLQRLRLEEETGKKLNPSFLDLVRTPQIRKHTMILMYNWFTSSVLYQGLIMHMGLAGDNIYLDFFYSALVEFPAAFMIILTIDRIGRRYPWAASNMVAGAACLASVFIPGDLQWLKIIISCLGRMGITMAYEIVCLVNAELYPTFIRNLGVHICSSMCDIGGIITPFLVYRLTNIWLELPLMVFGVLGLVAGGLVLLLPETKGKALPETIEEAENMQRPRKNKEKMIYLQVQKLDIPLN

[6] = biological target: T3, OCT2; conditions: read-out: IC50, Literature Report; substrate Metformin; HEK293 Cells; Sumito I, et al., JPET, 2011; cited from earlier work
[7] = biological target: T4, OAT3 (Homo sapiens, UniProt Q8TCC7); conditions: read-out: Km, SLC Transporter Cells; substrate 0.5 to 32 μM, incubation 1 min
T4 sequence (Q8TCC7 1-542): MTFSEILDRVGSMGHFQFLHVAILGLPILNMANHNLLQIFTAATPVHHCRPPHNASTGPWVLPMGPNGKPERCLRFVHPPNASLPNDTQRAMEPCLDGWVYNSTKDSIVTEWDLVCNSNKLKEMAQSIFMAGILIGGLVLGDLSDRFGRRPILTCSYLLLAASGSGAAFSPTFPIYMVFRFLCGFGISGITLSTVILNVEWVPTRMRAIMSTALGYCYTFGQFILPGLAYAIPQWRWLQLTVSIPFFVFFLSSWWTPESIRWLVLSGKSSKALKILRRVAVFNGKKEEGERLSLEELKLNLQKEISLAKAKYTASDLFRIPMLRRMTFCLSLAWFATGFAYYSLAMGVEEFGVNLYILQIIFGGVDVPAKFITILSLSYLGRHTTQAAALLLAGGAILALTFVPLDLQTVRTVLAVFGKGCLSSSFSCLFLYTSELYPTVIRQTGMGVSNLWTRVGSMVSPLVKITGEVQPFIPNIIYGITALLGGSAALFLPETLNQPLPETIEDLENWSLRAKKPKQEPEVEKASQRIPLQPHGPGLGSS

[8] = biological target: T4, OAT3; conditions: read-out: Km, Literature Report; HEK293 cells; Ueo H, et al., Biochem Pharmacol., 2005; cited from earlier work
[9] = biological target: T5, MATE1 (Homo sapiens, UniProt Q96FL8); conditions: 5 min, 10 µM, pH 7.4
T5 sequence (Q96FL8 1-570): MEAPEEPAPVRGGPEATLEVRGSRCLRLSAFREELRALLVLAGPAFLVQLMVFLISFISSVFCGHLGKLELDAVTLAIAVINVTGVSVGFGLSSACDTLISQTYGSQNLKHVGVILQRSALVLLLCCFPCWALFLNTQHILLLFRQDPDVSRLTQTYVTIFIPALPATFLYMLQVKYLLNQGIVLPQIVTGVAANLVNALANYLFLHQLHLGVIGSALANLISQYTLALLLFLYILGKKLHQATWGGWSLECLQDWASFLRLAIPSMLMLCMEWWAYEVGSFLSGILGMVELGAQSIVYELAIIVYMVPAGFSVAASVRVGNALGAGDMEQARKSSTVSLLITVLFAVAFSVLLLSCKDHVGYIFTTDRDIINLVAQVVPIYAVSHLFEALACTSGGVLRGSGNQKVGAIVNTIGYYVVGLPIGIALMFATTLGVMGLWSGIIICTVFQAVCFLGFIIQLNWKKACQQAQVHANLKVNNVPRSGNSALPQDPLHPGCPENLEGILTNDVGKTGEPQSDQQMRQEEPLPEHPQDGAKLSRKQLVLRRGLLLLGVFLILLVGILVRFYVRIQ

[10] = biological target: MATE2K (Homo sapiens, UniProt Q86VL8); conditions: 5 min, 10 µM, pH 7.4
Sequence of MATE2K (Q86VL8 1-566 isoform Q86VL8-3): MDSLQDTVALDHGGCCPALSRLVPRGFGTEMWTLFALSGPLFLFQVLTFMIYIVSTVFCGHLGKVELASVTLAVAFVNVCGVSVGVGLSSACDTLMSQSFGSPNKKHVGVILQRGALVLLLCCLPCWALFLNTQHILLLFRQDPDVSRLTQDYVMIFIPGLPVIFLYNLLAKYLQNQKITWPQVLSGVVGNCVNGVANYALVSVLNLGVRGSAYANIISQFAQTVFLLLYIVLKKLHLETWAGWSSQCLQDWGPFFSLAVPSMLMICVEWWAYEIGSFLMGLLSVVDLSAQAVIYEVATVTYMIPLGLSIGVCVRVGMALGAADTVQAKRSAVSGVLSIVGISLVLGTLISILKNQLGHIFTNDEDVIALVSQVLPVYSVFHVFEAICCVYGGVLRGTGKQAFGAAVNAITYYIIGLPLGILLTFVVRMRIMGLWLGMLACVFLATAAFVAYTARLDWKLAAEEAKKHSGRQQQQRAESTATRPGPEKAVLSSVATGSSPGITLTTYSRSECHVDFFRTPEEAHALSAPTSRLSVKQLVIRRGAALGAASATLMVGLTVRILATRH

[11] = biological target: T6, OATP1B1*15 (Homo sapiens, UniProt Q9Y6L6, N130D/V174A); conditions: for uptake reduced to: human
T6 sequence (Q9Y6L6 1-691 N130D/V174A): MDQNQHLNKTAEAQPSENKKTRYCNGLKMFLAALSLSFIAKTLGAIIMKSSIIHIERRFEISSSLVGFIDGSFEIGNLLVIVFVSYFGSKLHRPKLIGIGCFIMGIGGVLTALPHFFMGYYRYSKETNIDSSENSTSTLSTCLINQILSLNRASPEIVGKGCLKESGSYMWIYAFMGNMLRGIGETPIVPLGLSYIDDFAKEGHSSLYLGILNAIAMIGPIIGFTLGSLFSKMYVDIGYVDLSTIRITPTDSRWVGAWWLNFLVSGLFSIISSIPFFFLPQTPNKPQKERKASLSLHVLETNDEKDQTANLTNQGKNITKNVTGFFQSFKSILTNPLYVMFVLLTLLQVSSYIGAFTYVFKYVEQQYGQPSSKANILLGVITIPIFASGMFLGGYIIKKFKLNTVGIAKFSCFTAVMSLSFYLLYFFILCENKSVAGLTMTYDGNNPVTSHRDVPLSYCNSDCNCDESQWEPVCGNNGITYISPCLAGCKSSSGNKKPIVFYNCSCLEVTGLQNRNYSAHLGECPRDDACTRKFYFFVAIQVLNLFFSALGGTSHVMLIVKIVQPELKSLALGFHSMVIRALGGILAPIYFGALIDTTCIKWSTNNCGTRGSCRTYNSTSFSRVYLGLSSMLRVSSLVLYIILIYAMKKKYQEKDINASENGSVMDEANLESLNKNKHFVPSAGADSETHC

[12] = biological target: T7, OATP1B1*5 (Homo sapiens, UniProt Q9Y6L6, V174A)
T7 sequence (Q9Y6L6 1-691 V174A): T6 sequence (Q9Y6L6 1-691 N130D/V174A) with D130N

[13] = test system: monkey Oatp1b1
[14] = HEK-293 cells overexpressing the transporter

CSCC[C@H](NC(=O)[C@H](Cc1ccc(OS(=O)(=O)O)cc1)NC(=O)[C@@H](N)CC(=O)O)C(=O)NCC(=O)N[C@@H](Cc1c[nH]c2ccccc12)C(=O)N[C@@H](CCSC)C(=O)N[C@@H](CC(=O)O)C(=O)N[C@@H](Cc1ccccc1)C(N)=O [CCK-8, cholecystokinin]
uptake of substrate (in words) [1, 14]: significant uptake
uptake of substrate (in words) [2, 14]: significant uptake

CN/C(=N/CCSCc1nc[nH]c1C)NC#N [Cimetidine]
IC50 [3]: 104 µM
IC50 [4]: 230 µM
IC50 [5]: 195 µM
IC50 [6]: 124 µM

C[C@]12CC[C@@H]3c4ccc(OS(=O)(=O)O)cc4CC[C@H]3[C@@H]1CCC2=O [E3S, Estrone-3-sulfate]
Km [7]: 4 µM
Km [8]: 6.3 µM

CN(C)C(=N)N=C(N)N [Metformin]
UPTAKE ACTIVITY SLC transporter [9]: 71.4 pmol/mg/min
Uptake Ratio [9]: 12
UPTAKE ACTIVITY SLC transporter [10]: 33.5 pmol/mg/min
Uptake Ratio [10]: 6.5

CC(C)c1c(C(=O)Nc2ccccc2)c(-c2ccccc2)c(-c2ccc(F)cc2)n1CC[C@@H](O)C[C@@H](O)CC(=O)O [atorvastatin]
uptake activity / transport compared to OATP1B1*1a cells (in words) [11]: Significant decrease in uptake activity
uptake activity / transport compared to OATP1B1*1a cells (in words) [12]: Significant decrease in uptake activity

CC(C)n1c(/C=C/C(O)CC(O)CC(=O)O)c(-c2ccc(F)cc2)c2ccccc21 (stereo not shown) [fluvastatin]
uptake reduced to [11]: less than 5%

O=C(O)C[C@H](O)C[C@H](O)/C=C/c1c(C2CC2)nc2ccccc2c1-c1ccc(F)cc1 [pitavastatin]
uptake reduced to [11]: 40%

CC(C)c1nc(N(C)S(C)(=O)=O)nc(-c2ccc(F)cc2)c1/C=C/[C@@H](O)C[C@@H](O)CC(=O)O [rosuvastatin]
uptake of substrate (in words) [1]: significant uptake
uptake of substrate (in words) [13]: significant uptake
uptake of substrate (in words) [2]: significant uptake

— patent publication US20170067909A1, “ASSAY-READY RECOMBINANT CELLS TRANSIENTLY OVEREXPRESSING GENES ENCODING DRUG TRANSPORTER PROTEINS AND/OR DRUG METABOLIZING ENZYMES” (Corning Incorporated, priority 2012, published 2017)
